Where two headings read alike, the source gives them in different places. Numbered stars: 1 amine (or outer) side, 2 acyl side, 3 side chain; on linkers, the order of the positions; unused ones are H or OH. Bridge positions count the residues as written; N and C are the ends. Square brackets hold non-standard residues; d marks the D form. Peptide text beside a SMILES is read from it. * marks the point of attachment. DOTA = O=C(O)CN1CCN(CC(=O)O)CCN(CC(=O)*)CCN(CC(=O)O)CC1; Phe(4-Cl) = N[C@@H](Cc1ccc(Cl)cc1)C(=O)O; Arg(Me) = CNC(=N)NCCC[C@H](N)C(=O)O; Ethylenediamine = C(CN[*:2])N[*:1]; X1 = O=C(CC1CCN([*:1])CC1)[*:2]; Lys(Me) = CNCCCC[C@H](N)C(=O)O; Tle = CC(C)(C)[C@H](N)C(=O)O; Aib = CC(C)(N)C(=O)O
Experiments:
[1] = biological target: T1, PSMA-expressing C4-2 cells (Homo sapiens, UniProt Q04609); experiment: FACS binding assay (competition with 50 nM PSM-0183); conditions: C4-2 cells, read-out: pIC50 [C4-2] CAT (converted)
T1 construct: PSMA-expressing C4-2 cells (ATCC, Cat. No. CRL-3314) were cultured in RPMI-1640; host or cells: C4-2 cells
Method in brief: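 Competition format: fluorescent tracer PSM-0183 (50 nM) displaced from PSMA on C4-2 cells by a test compound titration over 1 h at 4 °C. Bound tracer was quantified as flow-cytometric AF488 median fluorescence after washing. Four-parameter logistic fits of MFI data gave IC50 and pIC50.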

[2] = biological target: T2, Fc-fusion protein of human PSMA (hPSMA-Fc) (Homo sapiens, UniProt Q04609); experiment: Surface plasmon resonance assay (Biacore T200, single cycle kinetic); format: binding; conditions: hPSMA-Fc, 25° C., read-out: pKD CAT (converted)
T2 construct: purchased Acro Biosystems PSA-H5264
Method in brief: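 KD, expressed as pKD, came from 1:1 Langmuir fits of reference- and buffer-blank-subtracted SPR data. The runs were single-cycle kinetics at 25° C in HBST/0.1% DMSO over human PSMA-Fc, captured to ~1000 RU on a peptide-coated CM5 surface and regenerated with 10 mM glycine pH 1.5.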

[3] = biological target: T3, recombinant human PSMA (Homo sapiens, UniProt Q04609); experiment: Enzyme inhibition assay (GCPII Inhibitor Screening Kit, fluorescence-based); format: biochemical; conditions: carboxypeptidase activity of recombinant human PSMA; highest final concentration 1 μM
T3 construct: purchased BioVision K440-100
Protocol: This peptidase activity hydrolyzes γ-peptide bonds between N-acetyl amino acid and glutamate of its substrate.
The carboxypeptidase inhibition of recombinant human PSMA by test compounds was assessed using a commercial fluorescence-based PSMA activity inhibition assay.
The employed Glutamate Carboxypeptidase II (GCPII) Inhibitor Screening Kit (BioVision, Cat #K440-100) is a fluorescence-based, enzymatic in vitro assay to measure the potency of PSMA inhibitors. The provided substrate is […] in the presence of PSMA producing glutamate. The detection system is based on an enzymatic reaction in which a fluorogenic probe is reduced, generating a stable signal.
For the assay, recombinant human PSMA was diluted in GCPII Assay Buffer as recommended in the assay protocol. Serial dilutions of the test compounds were prepared, starting from 10 μM (final reaction concentration of 1 μM). In a 96-well assay plate, 40 μL of the PSMA working solution was mixed with 30 μL of GCPII Assay Buffer. Next, 10 μL of the serially diluted test compounds were added. The mixture was incubated for 20 min at 37° C. Subsequently, 20 μL of a reaction mix solution was added. The fluorescence signal increased due to fluorophore reduction, which is directly proportional to the produced amount of glutamate, was measured in kinetic mode for 90 minutes at 37° C. in a SpectraMax M5 plate reader. RFU/see was assessed by the SoftMax Pro software and plotted against peptide concentrations. Four-parameter logistic (4PL) curve fitting and pIC50 calculations were performed using the GraphPad Prism software.

[4] = test system: PC3-PIP tumor model; design: species or system mice; conditions: mouse, in vivo
Method in brief: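 Male nude mice bearing shoulder xenografts (5×10^6 PC3-PIP cells, or 5×10^6 or 1×10^7 C4-2 cells) received ~30 MBq of ^111In-labeled compound intravenously via tail vein. SPECT/CT regions of interest for heart, kidney and tumor gave % ID/g, mean of two to three animals per time point, range as error.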

[5] = pKD category for PSMA SPR activity assay

T2 sequence (Q04609 44-750 limits assumed): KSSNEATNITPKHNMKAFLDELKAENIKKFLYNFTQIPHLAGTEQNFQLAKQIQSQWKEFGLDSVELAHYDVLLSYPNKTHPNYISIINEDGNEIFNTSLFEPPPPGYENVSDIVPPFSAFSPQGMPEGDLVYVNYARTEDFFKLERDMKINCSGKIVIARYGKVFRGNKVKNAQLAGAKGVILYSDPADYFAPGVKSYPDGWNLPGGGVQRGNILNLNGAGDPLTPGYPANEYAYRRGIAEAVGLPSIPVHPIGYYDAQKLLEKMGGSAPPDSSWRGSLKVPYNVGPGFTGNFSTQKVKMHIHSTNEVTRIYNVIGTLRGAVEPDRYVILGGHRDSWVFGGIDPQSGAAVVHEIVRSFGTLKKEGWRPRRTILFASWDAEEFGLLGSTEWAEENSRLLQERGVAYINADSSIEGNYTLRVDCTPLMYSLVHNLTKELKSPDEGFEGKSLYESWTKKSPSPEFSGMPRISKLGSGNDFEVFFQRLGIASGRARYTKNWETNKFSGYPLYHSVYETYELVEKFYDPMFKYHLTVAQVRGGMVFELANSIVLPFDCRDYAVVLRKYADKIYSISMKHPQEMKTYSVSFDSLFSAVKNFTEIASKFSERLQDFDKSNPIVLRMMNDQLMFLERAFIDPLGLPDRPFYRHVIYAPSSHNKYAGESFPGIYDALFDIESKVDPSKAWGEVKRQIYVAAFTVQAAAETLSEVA
T3 sequence (Q04609 whole entry): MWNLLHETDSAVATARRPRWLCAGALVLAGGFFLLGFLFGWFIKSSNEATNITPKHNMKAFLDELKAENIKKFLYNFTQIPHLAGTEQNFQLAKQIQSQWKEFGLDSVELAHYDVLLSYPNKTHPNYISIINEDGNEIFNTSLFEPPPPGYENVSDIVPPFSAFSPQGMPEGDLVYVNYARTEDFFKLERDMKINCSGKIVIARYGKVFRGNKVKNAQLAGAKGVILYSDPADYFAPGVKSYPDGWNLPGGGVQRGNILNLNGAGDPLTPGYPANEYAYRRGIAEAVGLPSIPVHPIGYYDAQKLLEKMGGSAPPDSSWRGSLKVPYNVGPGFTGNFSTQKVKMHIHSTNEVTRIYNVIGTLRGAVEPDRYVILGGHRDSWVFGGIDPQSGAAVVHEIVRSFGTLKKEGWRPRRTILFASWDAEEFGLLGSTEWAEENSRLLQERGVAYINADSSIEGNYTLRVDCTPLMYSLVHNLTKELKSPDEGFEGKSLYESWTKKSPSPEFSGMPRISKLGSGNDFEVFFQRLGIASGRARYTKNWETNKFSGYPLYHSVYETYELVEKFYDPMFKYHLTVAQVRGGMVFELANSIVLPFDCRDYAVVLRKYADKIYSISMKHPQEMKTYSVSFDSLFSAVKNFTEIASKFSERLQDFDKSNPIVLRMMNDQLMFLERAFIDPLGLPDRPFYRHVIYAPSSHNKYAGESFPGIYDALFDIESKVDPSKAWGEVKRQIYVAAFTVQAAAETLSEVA
T1 sequence (Q04609 whole entry): as above

Row | Structure (SMILES) | IC50 ([1]; pIC50 category of FACS binding) [nM] | Kd [2, 5] [nM] | IC50 [3] [nM] | IC50 ([1]; FACS binding, competition with 50 nM PSM-0183, category) [nM] | Kd ([2]; SPR, single cycle kinetic, category) [nM] | AUC ratio [T/K] [4] | Tumor AUC [4] [% ID/g*h]
1 | CC(=O)NC(C)(C)C(=O)N[C@@H](Cc1ccc(Cl)cc1)C(=O)N[C@H]1CSSC[C@@H](C(=O)N[C@H](C(N)=O)C(C)(C)C)NC(=O)[C@H](CC(N)=O)NC(=O)C(C)(C)NC(=O)[C@H](CCCNC(=N)N)NC(=O)[C@H](CCCCN)NC1=O [PSM-0424, Ac-Aib-Pcf-[Cys-Lys-Arg-Aib-Asn-Cys]-Tle-NH2] (Ac-[Aib][Phe(4-Cl)]CKR[Aib]NC[Tle]-NH2; disulfide 3-8) | < 200 | < 12.6 | > 1000 |  |  |  | 
2 | CNCCCC[C@@H]1NC(=O)[C@@H](NC(=O)[C@H](Cc2ccc(Cl)cc2)NC(=O)C(C)(C)NC(=O)[C@@H](NC(=O)CC2CCN(C(=O)CN3CCN(CC(=O)O)CCN(CC(=O)O)CCN(CC(=O)O)CC3)CC2)[C@@H](C)O)CSSC[C@@H](C(=O)N[C@H](C(=O)N[C@H](C(N)=O)[C@@H](C)O)C(C)(C)C)NC(=O)[C@H](CC(N)=O)NC(=O)C(C)(C)NC(=O)[C@H](CCCNC(=N)NC)NC1=O [PSM-0194, DOTA-Cmp-Thr-Aib-Pcf-[Cys-Lys(Me)-Arg(Me)-Aib-Asn-Cys]-Tle-Thr-NH2] ({DOTA}-[X1]T[Aib][Phe(4-Cl)]C[Lys(Me)][Arg(Me)][Aib]NC[Tle]T-NH2; disulfide 5-10) |  |  | > 1000 | < 200 | < 12.6 | 6.7 | 180
3 | CC(=O)NC(C)(C)C(=O)N[C@@H](Cc1ccc(Cl)cc1)C(=O)N[C@H]1CSSC[C@@H](C(=O)N[C@H](C(=O)NCCNC(=O)CN2CCN(CC(=O)O)CCN(CC(=O)O)CCN(CC(=O)O)CC2)C(C)(C)C)NC(=O)[C@H](CC(N)=O)NC(=O)C(C)(C)NC(=O)[C@H](CCCNC(=N)N)NC(=O)[C@H](CCCCN)NC1=O [PSM-0516, Ac-Aib-Pcf-[Cys-Lys-Arg-Aib-Asn-Cys]-Tle-en-DOTA] (Ac-[Aib][Phe(4-Cl)]CKR[Aib]NC[Tle]-{Ethylenediamine-DOTA}; disulfide 3-8) | < 200 | < 12.6 | > 1000 |  |  | 1.4 | 250
4 | C[C@@H](O)[C@H](NC(=O)[C@@H](NC(=O)[C@@H]1CSSC[C@H](NC(=O)[C@H](Cc2ccc(Cl)cc2)NC(=O)C(C)(C)NC(=O)[C@@H](NC(=O)CC2CCN(C(=O)CN3CCN(CC(=O)O)CCN(CC(=O)O)CCN(CC(=O)O)CC3)CC2)[C@@H](C)O)C(=O)N[C@@H](CCCCN)C(=O)N[C@@H](CCCNC(=N)N)C(=O)N[C@@H](CCC(=O)O)C(=O)N[C@@H](CC(N)=O)C(=O)N1)C(C)(C)C)C(N)=O [PSM-0416, DOTA-Cmp-Thr-Aib-Pcf-[Cys-Lys-Arg-Glu-Asn-Cys]-Tle-Thr-NH2] ({DOTA}-[X1]T[Aib][Phe(4-Cl)]CKRENC[Tle]T-NH2; disulfide 5-10) | < 200 | < 12.6 | > 1000 |  |  | 1.6 | 170
5 | CC(=O)N[C@H](C(=O)NC(C)(C)C(=O)N[C@@H](Cc1ccccc1)C(=O)N[C@H]1CSSC[C@@H](C(=O)N[C@H](C(=O)N[C@H](C(=O)N[C@@H](CC(=O)O)C(N)=O)[C@@H](C)O)C(C)(C)C)NC(=O)[C@H](CC(N)=O)NC(=O)C(C)(C)NC(=O)[C@H](CCCNC(=N)N)NC(=O)[C@H](CCCCN)NC1=O)[C@@H](C)O [PSM-0374, Ac-Thr-Aib-Phe-[Cys-Lys-Arg-Aib-Asn-Cys]-Tle-Thr-Asp-NH2] (Ac-T[Aib]FCKR[Aib]NC[Tle]TD-NH2; disulfide 4-9) | < 200 | < 12.6 | > 1000 |  |  |  | 
6 | C[C@@H](O)[C@H](NC(=O)CC1CCN(C(=O)CN2CCN(CC(=O)O)CCN(CC(=O)O)CCN(CC(=O)O)CC2)CC1)C(=O)NC(C)(C)C(=O)N[C@@H](Cc1ccc(Cl)cc1)C(=O)N[C@H]1CSSC[C@@H](C(=O)N[C@H](C(N)=O)C(C)(C)C)NC(=O)[C@H](CC(N)=O)NC(=O)C(C)(C)NC(=O)[C@H](CCCNC(=N)N)NC(=O)[C@H](CCCCN)NC1=O [PSM-0433, DOTA-Cmp-Thr-Aib-Pcf-[Cys-Lys-Arg-Aib-Asn-Cys]-Tle-NH2] ({DOTA}-[X1]T[Aib][Phe(4-Cl)]CKR[Aib]NC[Tle]-NH2; disulfide 5-10) | < 200 | < 12.6 |  |  |  | 1.7 | 270

From patent publication US20260083865A1, “PROSTATE SPECIFIC MEMBRANE ANTIGEN (PSMA) LIGANDS AND USE THEREOF” (priority 2022, published 2026)
